Source: US20150119251A1, “AGRICULTURAL PLANT-PROTECTING AGENTS CONTAINING DIPEPTIDE DERIVATIVE AS ACTIVE INGREDIENT” (REPUBLIC OF KOREA (RURAL DEVELOPMENT ADMINISTRATION), priority 2012, published 2015)
Peptide text beside a SMILES is read from it. * marks the point of attachment. Boc = CC(C)(C)OC(=O)*; Bz = O=C(c1ccccc1)*; OBn = c1ccc(CO*)cc1; OAll = C=CCO*

What was measured:
[1] = test system: pepper phytophthora blight (Phytopthora capsici); assay: Suppression of pepper phytophthora blight on leaves; assay type: in vivo; details: for Outbreak of the phytophthora blight on the leaves: drench-treated to the roots; for Lesion outbreak rate: pepper leaves; for Effect on suppressing the outbreak of pepper phytophthora blight or bacterial rot as compared with the non-treated control group: directly sprayed to the leaves
Procedure: (§1) The peppers were raised in the same method as Example 3, and then, the test compounds were dissolved in 20% methanol to make a stock solution, and a stock was diluted to the concentrations of 0.1, 1.0, and 10.0 ppm. The test solutions were sprayed on the leaves or drench-treated on the leaves. After 7 days, the pathogen of plant bacterial rot (Pectobacterium carotovorum SCC1) was cultured in a TSA medium for 27 hours, and then, wetted on an 8 mm diameter paper disc in the concentration of 10^8 cfu/mL. The paper disc was located in the center of the leaves that were cut roundly, and then, after about 7 days, the lesion area was measured. In the case of phytophthora, the potato agar medium cultured with the phytophthora (Phytophthora capsici) was cut in the internal diameter size of 5 mm with a cork borer, and then inoculated to the leaves. After 7 days, the lesion area was observed. In the case of a bacterial rot, when Compounds 6, 89, 93, and 95 were sprayed on the pepper leaves, the bacterial rot was not found in the concentration of 1 or 10 ppm as compared with the non-treated group. […] The Suppression of lesion formation on the leaves when these compounds were drench-treated to the roots can be explained as it was resulted from that systemic disease resistance was induced in the whole plant. These test results are illustrated in the photographs of FIGS. 5 to 9.

[2] = test system: tobacco bacterial rot (Pectobacterium carotovorum); assay: Suppression of tobacco bacterial rot; assay type: in vivo, Pectobacterium carotovorum SCC1
Procedure: A tobacco or cucumber was sown in a plastic pot with a diameter of 10 cm×13 cm, and then, 12 pots were added in a yellow box. After seeding, 100 μL was inoculated to the cotyledons of cucumber or tobacco, in which first leaf was started to come out. The test compounds were dissolved in 20% methanol to make a stock solution, and then, the stock solution was diluted to the concentrations of 1, 10, and 100 ppm.
After 7 days, the pathogen of a plant bacterial rot (Pectobacterium carotovorum SCC1) was cultured in a TSA medium for 27 hours; and then, the cultured pathogen was sprayed in a concentration of 10^8 cfu/mL to the plant leaves, and cultured at 30° C. for 3 days. The plant anthracnose germ (Colletotrichum orbiculare) was cultured in a GBA (Green bean agar) medium to induce spores for about 2 to 3 weeks. The germ was sprayed in a concentration of 10^5 cell/mL and then cultured at 26° C. for 1 day. When fourth or fifth leaf came out, 200 μL of each of the test compounds was inoculated to third leaf. After 7 days, the pathogen of the plant bacterial rot was sprayed to the plant leaves in the concentration of 10^8 cfu/mL, and then cultured at 30° C. for 3 days.
The investigation was performed with naked eyes, and the lesion relative areas were investigated until 0 to 100% according to the shortness degrees of the bacterial rot. The anthracnose was investigated by counting the number of lesions occurred on the leaves.

cucumber leaves = assay: Plant growth promotion, width of cucumber leaf; assay type: in vivo; details: non-treated = 100.0 (92.1 mm), unit of the source corrected
Procedure: The active ingredients (Compounds 5 to 8, 14, and 15) were drenched to the leaves of a plant (pepper, potato, tomato, tobacco, cucumber, and Chinese cabbage), and then, after 7 days, the plant lengths were measured. Since then, the plant disease pathogen was inoculated, and then, after 3 to 5 days, the sizes of the plant leaves were measured and compared with the control group to obtain the relative growth degrees.

[3] = test system: plant bacterial rot (Pectobacterium carotovorum SCC1); assay: Suppression of bacterial rot on pepper leaves (paper disc on cut leaves); assay type: in vivo; details: sprayed on the pepper leaves, 1 or 10 ppm
Procedure: as §1

pepper plant = assay: Overcoming cold weather-damage on pepper plant (2° C. for 1 day); assay type: in vivo; details: then room temperature 3 days
Procedure: In order to confirm the immunity-activating effect of the compounds of the present invention, the plants were exposed at the temperature so that they could be artificially damaged from cold weather, and the growth and development were observed. After growing the plants for 6 weeks, the compounds were drenched or sprayed on the leaves and the plants were raised for 1 week. After the plants were exposed under a 2° C. growth room for 1 day, they were raised at room temperature for 3 days. The degrees of the growth and development of the plants were observed and the degrees of the damage from cold weather in the plant were determined. […] The test results are illustrated in the photographs of FIGS. 11 and 12.

[4] = drench-treated, 1.0 or 10.0 ppm

COC(=O)CNC(=O)[C@@H](N)CC(C)C [Compound 4] (H-Leu-Gly-OMe)
Outbreak of the phytophthora blight on the leaves [1]: significantly decreased | Lesion outbreak rate ([2]; Table 3, tobacco, 1 ppm): 47% | Lesion outbreak rate ([2]; Table 3, tobacco, 10 ppm): 80% | Lesion outbreak rate ([2]; Table 3, tobacco, 100 ppm): 90%

COC(=O)CNC(=O)[C@@H](NC(=O)OC(C)(C)C)C(C)C [Compound 5] (Boc-Val-Gly-OMe)
Lesion outbreak rate ([2]; Table 3, tobacco, 1 ppm): 73% | Lesion outbreak rate ([2]; Table 3, tobacco, 10 ppm): 40% | Lesion outbreak rate ([2]; Table 3, tobacco, 100 ppm): 7.7% | Width of cucumber leaf (relative value to the non-treated group) (cucumber leaves; 1.0 ppm): 100% | Width of cucumber leaf (relative value to the non-treated group) (cucumber leaves; 10 ppm): 111% | Width of cucumber leaf (relative value to the non-treated group) (cucumber leaves; 100 ppm): 121%

COC(=O)CNC(=O)[C@@H](N)C(C)C [Compound 6] (H-Val-Gly-OMe)
Bacterial rot on pepper leaves as compared with the non-treated group [3]: not found | Lesion outbreak rate ([2]; Table 3, tobacco, 1 ppm): 11% | Lesion outbreak rate ([2]; Table 3, tobacco, 10 ppm): 2.1% | Lesion outbreak rate ([2]; Table 3, tobacco, 100 ppm): 3.5% | Width of cucumber leaf (relative value to the non-treated group) (cucumber leaves; 1.0 ppm): 114% | Width of cucumber leaf (relative value to the non-treated group) (cucumber leaves; 10 ppm): 124% | Width of cucumber leaf (relative value to the non-treated group) (cucumber leaves; 100 ppm): 123%

COC(=O)C(CC(C)C)NC(=O)C(NC(=O)OC(C)(C)C)C(C)O (stereo not drawn) [Compound 7] (Boc-Thr-Leu-OMe; configuration not given here)
Lesion outbreak rate ([2]; Table 3, tobacco, 1 ppm): 40% | Lesion outbreak rate ([2]; Table 3, tobacco, 10 ppm): 27% | Lesion outbreak rate ([2]; Table 3, tobacco, 100 ppm): 20% | Width of cucumber leaf (relative value to the non-treated group) (cucumber leaves; 1.0 ppm): 110% | Width of cucumber leaf (relative value to the non-treated group) (cucumber leaves; 10 ppm): 121% | Width of cucumber leaf (relative value to the non-treated group) (cucumber leaves; 100 ppm): 121%

COC(=O)C(CC(C)C)NC(=O)C(N)C(C)O (stereo not drawn) [Compound 8] (H-Thr-Leu-OMe; configuration not given here)
Lesion outbreak rate ([2]; Table 3, tobacco, 1 ppm): 43% | Lesion outbreak rate ([2]; Table 3, tobacco, 10 ppm): 57% | Lesion outbreak rate ([2]; Table 3, tobacco, 100 ppm): 0% | Width of cucumber leaf (relative value to the non-treated group) (cucumber leaves; 1.0 ppm): 122% | Width of cucumber leaf (relative value to the non-treated group) (cucumber leaves; 10 ppm): 123% | Width of cucumber leaf (relative value to the non-treated group) (cucumber leaves; 100 ppm): 120%

COC(=O)[C@H](C)NC(=O)CNC(=O)OC(C)(C)C [Compound 14] (Boc-Gly-Ala-OMe)
Lesion outbreak rate ([2]; Table 6, tobacco, 1 ppm): 50% | Lesion outbreak rate ([2]; Table 6, tobacco, 10 ppm): 78% | Lesion outbreak rate ([2]; Table 6, tobacco, 100 ppm): 35% | Width of cucumber leaf (relative value to the non-treated group) (cucumber leaves; 1.0 ppm): 104% | Width of cucumber leaf (relative value to the non-treated group) (cucumber leaves; 10 ppm): 103% | Width of cucumber leaf (relative value to the non-treated group) (cucumber leaves; 100 ppm): 113%

COC(=O)[C@H](C)NC(=O)[C@H](Cc1ccc(O)cc1)NC(=O)OC(C)(C)C [Compound 15]
Lesion outbreak rate ([2]; Table 6, tobacco, 1 ppm): 75% | Lesion outbreak rate ([2]; Table 6, tobacco, 10 ppm): 63% | Lesion outbreak rate ([2]; Table 6, tobacco, 100 ppm): 50% | Width of cucumber leaf (relative value to the non-treated group) (cucumber leaves; 1.0 ppm): 98.9% | Width of cucumber leaf (relative value to the non-treated group) (cucumber leaves; 10 ppm): 113% | Width of cucumber leaf (relative value to the non-treated group) (cucumber leaves; 100 ppm): 112%

COC(=O)C[C@H](NC(=O)OC(C)(C)C)C(=O)N[C@@H](Cc1ccccc1)C(=O)OC [Compound 90] (Boc-Asp(OMe)-Phe-OMe)
Lesion outbreak rate ([1]; 0.1 ppm): 24 area % | Lesion outbreak rate ([1]; 1.0 ppm): 7.2 area % | Cold weather-damage (pepper plant; sprayed on the leaves): no damages observed

COC(=O)C[C@H](N)C(=O)N[C@@H](Cc1ccccc1)C(=O)OC [Compound 91] (H-Asp(OMe)-Phe-OMe)
Effect on suppressing the outbreak of pepper phytophthora blight or bacterial rot as compared with the non-treated control group [1]: excellent | Lesion outbreak rate ([1]; 0.1 ppm): 14 area % | Lesion outbreak rate ([1]; 1.0 ppm): 24 area % | Cold weather-damage (pepper plant; sprayed on the leaves): no damages observed

C=CCOC(=O)C[C@H](N)C(=O)N[C@@H](Cc1ccccc1)C(=O)OC [Compound 93] (H-Asp(OAll)-Phe-OMe)
Bacterial rot on pepper leaves as compared with the non-treated group [3]: not found | Effect on suppressing the outbreak of pepper phytophthora blight or bacterial rot as compared with the non-treated control group [1]: excellent | Lesion outbreak rate ([1]; 0.1 ppm): 35 area % | Lesion outbreak rate ([1]; 1.0 ppm): 23 area % | Cold weather-damage (pepper plant; sprayed on the leaves): no damages observed

COC(=O)[C@H](Cc1ccccc1)NC(=O)[C@@H](N)CC(=O)OCc1ccccc1 [Compound 95] (H-Asp(OBn)-Phe-OMe)
Bacterial rot on pepper leaves as compared with the non-treated group [3]: not found | Outbreak of the phytophthora blight on the leaves [1]: significantly decreased | Lesion formation, pepper phytophthora test [1, 4]: no the lesion formations | Lesion outbreak rate ([1]; 0.1 ppm): 9.2 area % | Lesion outbreak rate ([1]; 1.0 ppm): 3.8 area % | Cold weather-damage (pepper plant; drench-treated): no cold weather-damages | Cold weather-damage (pepper plant; sprayed on the leaves): no damages observed

COC(=O)C[C@H](NC(C)=O)C(=O)N[C@@H](Cc1ccccc1)C(=O)OC [Compound 96] (Ac-Asp(OMe)-Phe-OMe)
Lesion outbreak rate ([1]; 0.1 ppm): 32 area % | Lesion outbreak rate ([1]; 1.0 ppm): 23 area %

COC(=O)C[C@H](NC(=O)c1ccccc1)C(=O)N[C@@H](Cc1ccccc1)C(=O)OC [Compound 97] (Bz-Asp(OMe)-Phe-OMe)
Lesion outbreak rate ([1]; 0.1 ppm): 22 area % | Lesion outbreak rate ([1]; 1.0 ppm): 25 area %

C=CCOC(=O)C[C@H](NC(C)=O)C(=O)N[C@@H](Cc1ccccc1)C(=O)OC [Compound 98] (Ac-Asp(OAll)-Phe-OMe)
Lesion outbreak rate ([1]; 0.1 ppm): 16 area % | Lesion outbreak rate ([1]; 1.0 ppm): 12 area %

C=CCOC(=O)C[C@H](NC(=O)c1ccccc1)C(=O)N[C@@H](Cc1ccccc1)C(=O)OC [Compound 99] (Bz-Asp(OAll)-Phe-OMe)
Lesion outbreak rate ([1]; 0.1 ppm): 36 area % | Lesion outbreak rate ([1]; 1.0 ppm): 18 area %

COC(=O)[C@H](Cc1ccccc1)NC(=O)[C@H](CC(=O)OCc1ccccc1)NC(C)=O [Compound 100] (Ac-Asp(OBn)-Phe-OMe)
Lesion outbreak rate ([1]; 0.1 ppm): 19 area % | Lesion outbreak rate ([1]; 1.0 ppm): 21 area %

COC(=O)[C@H](Cc1ccccc1)NC(=O)[C@H](CC(=O)OCc1ccccc1)NC(=O)c1ccccc1 [Compound 101] (Bz-Asp(OBn)-Phe-OMe)
Lesion outbreak rate ([1]; 0.1 ppm): 11 area % | Lesion outbreak rate ([1]; 1.0 ppm): 27 area %

COC(=O)[C@H](Cc1ccccc1)NC(=O)[C@H](CC(=O)O)NC(C)=O [Compound 102] (Ac-Asp-Phe-OMe)
Lesion outbreak rate ([1]; 0.1 ppm): 20 area % | Lesion outbreak rate ([1]; 1.0 ppm): 15 area %

COC(=O)CNC(=O)[C@@H](NC(C)=O)C(C)C [Compound 103] (Ac-Val-Gly-OMe)
Lesion outbreak rate ([1]; 0.1 ppm): 15 area % | Lesion outbreak rate ([1]; 1.0 ppm): 28 area %

COC(=O)CNC(=O)[C@H](CC(C)C)NC(C)=O [Compound 104] (Ac-Leu-Gly-OMe)
Lesion outbreak rate ([1]; 0.1 ppm): 22 area % | Lesion outbreak rate ([1]; 1.0 ppm): 18 area %

COC(=O)CNC(=O)[C@@H]1CCCN1C(C)=O [Compound 105] (Ac-Pro-Gly-OMe)
Lesion outbreak rate ([1]; 0.1 ppm): 18 area % | Lesion outbreak rate ([1]; 1.0 ppm): 21 area %

COC(=O)[C@@H]1CCCN1C(=O)CNC(=O)OC(C)(C)C [Compound 106] (Boc-Gly-Pro-OMe)
Lesion outbreak rate ([1]; 0.1 ppm): 25 area % | Lesion outbreak rate ([1]; 1.0 ppm): 26 area %

COC(=O)[C@@H]1CCCN1C(=O)[C@@H](N)Cc1c[nH]c2ccccc12 [Compound 107] (H-Trp-Pro-OMe)
Effect on suppressing the outbreak of pepper phytophthora blight or bacterial rot as compared with the non-treated control group [1]: excellent | Outbreak of the phytophthora blight on the leaves [1]: significantly decreased | Lesion formation, pepper phytophthora test [1, 4]: no the lesion formations | Lesion outbreak rate ([1]; 0.1 ppm): 9.3 area % | Lesion outbreak rate ([1]; 1.0 ppm): 3.5 area % | Lesion formation, pepper phytophthora test ([1]; sprayed on the leaves, 1 or 0.1 ppm): no the lesion formations

COC(=O)[C@H](C)NC(=O)[C@@H](N)C(C)C [Compound 108] (H-Val-Ala-OMe)
Lesion outbreak rate ([1]; 0.1 ppm): 14 area % | Lesion outbreak rate ([1]; 1.0 ppm): 18 area %

CCC(C)C(N)C(=O)NC(C)C(=O)OC (centres unmarked) [Compound 109]
Lesion outbreak rate ([1]; 0.1 ppm): 25 area % | Lesion outbreak rate ([1]; 1.0 ppm): 9.4 area %
